The values below come from BigSolDB 2.1.

The conditions of the series: in water.

For the compound `O=C(O)c1cccc([N+](=O)[O-])c1C(=O)O`, the solubility (mole fraction) (commonly solubility expressed as the solute's share of all molecules) (285.15 K) came to 0.000774; the solubility (mole fraction) (292.15 K) was found to be 0.000984; the solubility (mole fraction) (298.15 K) came to 0.00141; the solubility (mole fraction) (306.15 K) was 0.00189; the solubility (mole fraction) (313.15 K) stood at 0.0026; the solubility (mole fraction) (320.15 K) came out at 0.00352. Also, the solubility (mole fraction) by setting is: (327.15 K) 0.00467; (333.15 K) 0.00581; (339.15 K) 0.00713; (344.15 K) 0.00847; (348.15 K) 0.00955.
Take `O=C(O)c1ccc([N+](=O)[O-])cc1C(=O)O`: the solubility (mole fraction) is, setting by setting: (285.15 K) 0.087; (292.15 K) 0.103; (298.15 K) 0.117; (306.15 K) 0.137; (313.15 K) 0.153; (320.15 K) 0.172. Besides, the solubility (mole fraction) by setting is: (327.15 K) 0.188; (333.15 K) 0.2; (339.15 K) 0.211; (344.15 K) 0.218; (348.15 K) 0.222.
